Source: ChEMBL document CHEMBL1201862, “PubChem BioAssay data set” (2004)
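Five compound concentrations were applied to cells in 96-well plates for 48 hours; endpoints were derived by simple linear interpolation of the resulting dose-response curve. GI50: concentration for 50% inhibition of growth.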 Calls of active or inactive are those of the source. No stated cut-off is given here; in the data, active = GI50 up to about 1.1 µM and inactive = higher.

Experiments:
Assay in all cases: NCI-60 cell line screen, 48 h
[1] = system: CAKI-1
[2] = system: DU-145
[3] = system: EKVX
[4] = system: HCC 2998
[5] = system: HCT-116
[6] = system: Hs-578T
[7] = system: MDA-MB-435
[8] = system: Malme-3M
[9] = system: NCI-H226
[10] = system: NCI-H522
[11] = system: OVCAR-3
[12] = system: OVCAR-5
[13] = system: RXF 393
[14] = system: SF-295
[15] = system: SK-MEL-2
[16] = system: SN12C
[17] = system: SNB-75
[18] = system: SR
[19] = system: U-251
[20] = system: UO-31

Measured: GI50

CCCC(=O)OC[n+]1cccc(-c2c(COC(=O)NC(C)C)c(COC(=O)NC(C)C)c3n2CCC3)c1
inactive: [1] 8.51 µM | [2] 43.2 µM | [3] > 100 µM | [4] > 100 µM | [5] 19.7 µM | [6] > 100 µM | [7] 98.2 µM | [8] 66.5 µM | [9] > 91 µM | [10] 30.4 µM | [11] > 77.8 µM | [12] 97.7 µM | [13] 23.1 µM | [14] 71.9 µM | [15] > 82.6 µM | [16] 37.8 µM | [17] 71.3 µM | [18] 5.75 µM | [19] > 60.7 µM | [20] 38.7 µM
